Where only a bound is given, the exact number is not on record here.

For this assay, the target named is T1, androgen receptor (AR-LBD) (Rattus norvegicus, UniProt P15207).
T1 construct: 5 μL of 2×AR-LBD/Fluoromone AL Red Complex contained in the kit; purchased Invitrogen
T1 sequence (P15207 651-882 limits assumed): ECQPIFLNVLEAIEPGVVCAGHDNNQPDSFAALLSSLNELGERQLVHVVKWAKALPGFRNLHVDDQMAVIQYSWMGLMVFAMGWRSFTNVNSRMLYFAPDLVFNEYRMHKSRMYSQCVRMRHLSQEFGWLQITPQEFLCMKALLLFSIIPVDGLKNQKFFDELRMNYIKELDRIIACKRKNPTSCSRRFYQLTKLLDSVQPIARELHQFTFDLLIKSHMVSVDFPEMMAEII
Nature of the assay: Evaluation of androgen receptor affinity (PolarScreen Androgen Receptor Competitor Assay Kit, Red; fluorescence polarization). As to conditions: 22° C. for 5 hours, relative to binding rate of 1 μM DHT, read-out: AR affinity (pEC50) (converted). Put shortly:
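Compounds were mixed with AR-LBD/Fluoromone AL Red complex and incubated 5 h at 22° C before fluorescence polarization was read. Binding was expressed relative to 1 μM dihydrotestosterone, and pEC50 (concentration giving 50% of that binding) came from a 4-parameter fit.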
In the case of `Cc1sc(N(CCC2CC2)Cc2ccccc2)nc1C(=O)NS(C)(=O)=O` [Compound 687, 2-[benzyl(2-cyclopropylethyl)amino]-5-methyl-N-methylsulfonyl-thiazole-4-carboxamide], the EC50 is above 2000 nM. Regarding `Cc1sc(N(Cc2ccccc2)c2cccc(CCOCc3ccccc3)c2)nc1C(=O)NS(C)(=O)=O` [Example 231, 2-[N-benzyl-3-(2-benzyloxyethyl)anilino]-5-methyl-N-methylsulfonyl-thiazole-4-carboxamide], the EC50 was above 2000 nM.

For the molecule `Cc1sc(N(C)Cc2ccccc2)nc1C(=O)NS(C)(=O)=O` [Example 292, 2-[benzyl(methyl)amino]-5-methyl-N-methylsulfonyl-thiazole-4-carboxamide], the EC50 was above 2000 nM. With `Cc1sc(N(Cc2ccccc2)c2ccccc2CO)nc1C(=O)NS(C)(=O)=O` [Compound 606, 2-[N-benzyl-2-(hydroxymethyl)anilino]-5-methyl-N-methylsulfonyl-thiazole-4-carboxamide], the EC50 was above 2000 nM. For `Cc1sc(N(CC(=O)C2CCCCC2)c2ccc(C#N)cc2)nc1C(=O)NS(C)(=O)=O` [Compound 432, 2-(4-cyano-N-(2-cyclohexyl-2-oxo-ethyl)anilino)-5-methyl-N-methylsulfonyl-thiazole-4-carboxamide], the EC50 was above 2000 nM.

On to `Cc1sc(N(CC(=O)NC2CCCCC2)c2ccc(C#N)cc2)nc1C(=O)NS(C)(=O)=O` [Compound 423, 2-(4-cyano-N-[2-(cyclohexylamino)-2-oxo-ethyl]anilino)-5-methyl-N-methylsulfonyl-thiazole-4-carboxamide], for which the EC50 was above 2000 nM. With `Cc1sc(N(CC(=O)N(C)c2ccccc2)c2ccc(C#N)cc2)nc1C(=O)NS(C)(=O)=O` [Compound 426, 2-(4-cyano-N-[2-(N-methylanilino)-2-oxo-ethyl]anilino)-5-methyl-N-methylsulfonyl-thiazole-4-carboxamide], the EC50 was above 2000 nM. As for `Cc1sc(N(Cc2ccccc2)c2cccc(CCO)c2)nc1C(=O)NS(C)(=O)=O` [Compound 605, 2-[N-benzyl-3-(2-hydroxyethyl)anilino]-5-methyl-N-methylsulfonyl-thiazole-4-carboxamide], the EC50 was above 2000 nM. For `Cc1sc(N(CCC2CCCN2C)c2ccc(C#N)cc2)nc1C(=O)NS(C)(=O)=O` (stereo not shown) [Compound 481, 2-[4-cyano-N-[2-(1-methylpyrrolidin-2-yl)ethyl]anilino]-5-methyl-N-methylsulfonyl-thiazole-4-carboxamide], the EC50 is above 2000 nM.

`Cc1sc(N(Cc2ccccc2)c2cccc3ccccc23)nc1C(=O)NS(C)(=O)=O` [Example 227, 2-[benzyl(1-naphthyl)amino]-5-methyl-N-methylsulfonyl-thiazole-4-carboxamide]: the EC50 is above 2000 nM. To `Cc1sc(N(Cc2ccccc2)c2ccc(C(F)(F)F)nn2)nc1C(=O)NS(C)(=O)=O` [Example 237, 2-[benzyl-[6-(trifluoromethyl)pyridazin-3-yl]amino]-5-methyl-N-methylsulfonyl-thiazole-4-carboxamide] belongs 631 nM; to `Cc1sc(N(Cc2ccccc2)c2ccc3[nH]ccc3c2)nc1C(=O)NS(C)(=O)=O` [Compound 336, 2-[benzyl(1H-indol-5-yl)amino]-5-methyl-N-methylsulfonyl-thiazole-4-carboxamide], above 2000 nM; to `Cc1sc(N(CC[C@H]2C[C@H](O)CO2)c2ccc(C#N)cc2)nc1C(=O)NS(C)(=O)=O` (racemic) [Compound 457, 2-[4-cyano-N-[2-[trans-4-hydroxytetrahydrofuran-2-yl]ethyl]anilino]-5-methyl-N-methylsulfonyl-thiazole-4-carboxamide], above 2000 nM. In the case of `Cc1sc(N(CC2CCCC(O)C2)c2ccc(C#N)cc2)nc1C(=O)NS(C)(=O)=O` (stereo not shown) [Compound 427, 2-[4-cyano-N-[(3-hydroxycyclohexyl)methyl]anilino]-5-methyl-N-methylsulfonyl-thiazole-4-carboxamide], the EC50 is above 2000 nM. For the molecule `Cc1nc(CN(c2ccc(C#N)cc2)c2nc(C(=O)NS(C)(=O)=O)c(Cl)s2)cs1` [Example 278, 5-chloro-2-[4-cyano-N-[(2-methylthiazol-4-yl)methyl]anilino]-N-methylsulfonyl-thiazole-4-carboxamide], the EC50 is 794 nM.

Turning to `Cc1sc(N(Cc2ccccc2)Cc2ccccc2)nc1C(=O)NS(C)(=O)=O` [Example 288, 2-(dibenzylamino)-5-methyl-N-methylsulfonyl-thiazole-4-carboxamide], the EC50 was above 2000 nM. With `Cc1sc(N(CCc2ccc(S(C)(=O)=O)cc2)Cc2ccccc2)nc1C(=O)NS(C)(=O)=O` [Example 317, 2-[benzyl-[2-(4-methylsulfonylphenyl)ethyl]amino]-5-methyl-N-methylsulfonyl-thiazole-4-carboxamide], the EC50 was 501 nM. On to `Cc1sc(N(Cc2ccccc2)c2cccc(C(F)(F)F)c2)nc1C(=O)NS(C)(=O)=O` [Example 224, 2-[N-benzyl-3-(trifluoromethyl)anilino]-5-methyl-N-methylsulfonyl-thiazole-4-carboxamide], for which the EC50 was 1260 nM. As to `Cc1sc(N(Cc2ccccc2)c2ccc(C#N)cc2)nc1C(=O)NS(=O)(=O)c1cccnc1` [Compound 381, 2-(N-benzyl-4-cyano-anilino)-5-methyl-N-(3-pyridylsulfonyl)thiazole-4-carboxamide], the EC50 was 794 nM. To `Cc1sc(N(Cc2ccccc2)c2cccnn2)nc1C(=O)NS(C)(=O)=O` [Example 238, 2-[benzyl(pyridazin-3-yl)amino]-5-methyl-N-methylsulfonyl-thiazole-4-carboxamide] belongs above 2000 nM; to `Cc1sc(N(CCOC(C)C)c2ccc(C#N)cc2)nc1C(=O)NS(C)(=O)=O` [Compound 449, 2-[4-cyano-N-(2-isopropoxyethyl)anilino]-5-methyl-N-methylsulfonyl-thiazole-4-carboxamide], 398 nM; to `Cc1sc(N(Cc2ccccc2C(F)F)c2ccc(C#N)cc2)nc1C(=O)NS(C)(=O)=O` [Compound 93, 2-[4-cyano-N-[[2-(difluoromethyl)phenyl]methyl]anilino]-5-methyl-N-methylsulfonyl-thiazole-4-carboxamide], 631 nM. For `Cc1sc(N(Cc2nccs2)c2ccc(C#N)cc2)nc1C(=O)NS(C)(=O)=O` [Compound 392, 2-[4-cyano-N-(thiazol-2-ylmethyl)anilino]-5-methyl-N-methylsulfonyl-thiazole-4-carboxamide], the EC50 is above 2000 nM.

Consider `Cc1sc(N(Cc2ccccc2)c2cccc(-n3cncn3)c2)nc1C(=O)NS(C)(=O)=O` [Compound 71, 2-[N-benzyl-3-(1,2,4-triazol-1-yl)anilino]-5-methyl-N-methylsulfonyl-thiazole-4-carboxamide], for which the EC50 was above 2000 nM. For `CC(=O)c1cccc(CN(c2ccc(C#N)cc2)c2nc(C(=O)NS(C)(=O)=O)c(C)s2)c1` [Compound 95, 2-[N-[(3-acetylphenyl)methyl]-4-cyano-anilino]-5-methyl-N-methylsulfonyl-thiazole-4-carboxamide], the EC50 was 251 nM. For the molecule `Cc1sc(N(CCN2CCCC2=O)c2ccc(C#N)cc2)nc1C(=O)NS(C)(=O)=O` [Compound 137, 2-[4-cyano-N-[2-(2-oxopyrrolidin-1-yl)ethyl]anilino]-5-methyl-N-methylsulfonyl-thiazole-4-carboxamide], the EC50 was above 2000 nM.

For `Cc1sc(N(Cc2ccc(OC(F)(F)F)cc2)c2ccc(C#N)cc2)nc1C(=O)NS(=O)(=O)CCCN1CCOCC1` [Compound 541, 2-[4-cyano-N-[[4-(trifluoromethoxy)phenyl]methyl]anilino]-5-methyl-N-(3-morpholinopropylsulfonyl)thiazole-4-carboxamide], the EC50 was above 2000 nM. On to `Cc1sc(N(CCc2c[nH]c3ccccc23)Cc2ccccc2)nc1C(=O)NS(C)(=O)=O` [Compound 320, 2-[benzyl-[2-(1H-indol-3-yl)ethyl]amino]-5-methyl-N-methylsulfonyl-thiazole-4-carboxamide], for which the EC50 was 631 nM.

As for `Cc1sc(N(Cc2ccccc2)Cc2ccccc2C#N)nc1C(=O)NS(C)(=O)=O` [Example 291, 2-[benzyl-[(2-cyanophenyl)methyl]amino]-5-methyl-N-methylsulfonyl-thiazole-4-carboxamide], the EC50 was above 2000 nM. The figure for `COC(=O)c1ccc(N(Cc2ccccc2)c2nc(C(=O)NS(C)(=O)=O)c(C)s2)nn1` [Example 239, methyl 6-[benzyl-[5-methyl-4-(methylsulfonylcarbamoyl)thiazol-2-yl]amino]pyridazine-3-carboxylate] is above 2000 nM; for `Cc1sc(N(Cc2ccccc2)c2ccc(OCCO)cc2)nc1C(=O)NS(C)(=O)=O` [Example 211, 2-[N-benzyl-4-(2-hydroxyethoxy)anilino]-5-methyl-N-methylsulfonyl-thiazole-4-carboxamide] it is above 2000 nM.

Regarding `Cc1sc(N(CC(C)C)c2ccc(C#N)cc2)nc1C(=O)NS(C)(=O)=O` [Compound 73, 2-(4-cyano-N-isobutyl-anilino)-5-methyl-N-methylsulfonyl-thiazole-4-carboxamide], the EC50 is above 2000 nM. Regarding `Cc1sc(N(CC2CCC2)c2ccc(C#N)cc2)nc1C(=O)NS(C)(=O)=O` [Compound 440, 2-[4-cyano-N-(cyclobutylmethyl)anilino]-5-methyl-N-methylsulfonyl-thiazole-4-carboxamide], the EC50 is 501 nM.

For `Cc1sc(N(Cc2ccccc2)CC2(c3ccccc3)CC2)nc1C(=O)NS(C)(=O)=O` [Example 304, 2-[benzyl-[(1-phenylcyclopropyl)methyl]amino]-5-methyl-N-methylsulfonyl-thiazole-4-carboxamide], the EC50 is above 2000 nM.

The values are drawn from patent US10689354B2, “Aminoazole derivative” (Teijin Pharma Limited, priority 2015, dated 2020).
